Among the data in ChEMBL document CHEMBL1130969, “Potent 3-spiropiperidine growth hormone secretagogues” (Bioorg Med Chem Lett, 1998) are EC50 values, retold here.

Usually EC50 stands for the concentration at which the effect is half-maximal. The low end stands for higher potency in that assay, the high end for lower potency in that assay.

The species named for one test is Rattus norvegicus. Nature of the test: In vitro growth hormone release was determined in rat pituitary cell assay; NA means not active. Type of test: functional. To be noted: pituitary gland cell.
On to `CC(C)(N)C(=O)N[C@H](Cc1c[nH]c2ccccc12)C(=O)N1CCCC2(Cc3ccccc3C2O)C1` (stereo partly drawn), for which the concentration giving a half-maximal response (EC50) result was “Not Active”.

For another test, the target named is Growth hormone secretagogue receptor type 1 (Rattus norvegicus, UniProt O08725). Nature of the test: In vitro growth hormone release was determined in rat pituitary cell assay.
Growth hormone secretagogue receptor type 1, sequence (O08725 whole entry): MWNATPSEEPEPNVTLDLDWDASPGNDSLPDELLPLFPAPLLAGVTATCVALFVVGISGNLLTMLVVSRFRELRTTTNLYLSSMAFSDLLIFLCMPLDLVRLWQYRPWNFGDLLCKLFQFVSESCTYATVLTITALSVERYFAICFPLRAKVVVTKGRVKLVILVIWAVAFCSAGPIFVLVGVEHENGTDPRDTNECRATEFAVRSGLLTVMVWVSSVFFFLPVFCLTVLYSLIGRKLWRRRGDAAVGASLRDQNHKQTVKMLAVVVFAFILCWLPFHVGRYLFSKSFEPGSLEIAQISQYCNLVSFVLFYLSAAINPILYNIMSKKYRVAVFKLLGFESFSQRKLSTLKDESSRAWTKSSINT
Settings: not given; call rule not given here
Type of test: functional, cell-based, Pituitary gland cell.
`CC(C)(N)C(=O)N[C@H](Cc1c[nH]c2ccccc12)C(=O)N1CCC[C@]2(CC(=O)c3ccccc3O2)C1`: a half-maximal effect (EC50) was put at 0.057 µM.

In turn, `CC(C)(N)CC(=O)N[C@@H]1CCc2ccccc2N(Cc2ccc(-c3ccccc3-c3nnn[nH]3)cc2)C1=O` displayed a half-maximal effective concentration (EC50) of 0.06 µM.

`CC(C)(N)C(=O)N[C@H](Cc1c[nH]c2ccccc12)C(=O)N1CCC2(CCCc3ccccc32)CC1` returned a half-maximal effective concentration (EC50) of 0.066 µM.

As for `CC(C)(N)C(=O)N[C@H](Cc1c[nH]c2ccccc12)C(=O)N1CCC2(CC1)Cc1ccccc1C2O` (stereo partly drawn), the concentration for a half-maximal effect (EC50) came out at 0.019 µM.

Molecule `CC(C)(N)C(=O)N[C@H](Cc1c[nH]c2ccccc12)C(=O)N1CCC2(CCc3ccccc32)CC1` [L-162752] gave an EC50 of 0.014 µM.

`CC(C)(N)C(=O)N[C@H](Cc1c[nH]c2ccccc12)C(=O)N1CCCC2(Cc3ccccc3C2=O)C1` (stereo partly drawn): a half-maximal effect (EC50) was put at 0.02 µM.

Molecule `CC(C)(N)C(=O)N[C@H](Cc1c[nH]c2ccccc12)C(=O)N1CCCC2(CCc3ccccc3O2)C1` (stereo partly drawn) yielded an EC50 of 0.0029 µM.

In the case of `CC(C)(N)C(=O)N[C@H](Cc1c[nH]c2ccccc12)C(=O)N1CCC2(CC1)CC(O)c1ccccc1O2` (stereo partly drawn), the concentration giving a half-maximal response (EC50) was 0.016 µM.

Turning to `CC(C)(N)C(=O)N[C@H](Cc1c[nH]c2ccccc12)C(=O)N1CCC2(CC1)Cc1ccccc1C2=O`, the EC50 came to 0.042 µM.

As to `CC(C)(N)C(=O)N[C@H](Cc1c[nH]c2ccccc12)C(=O)N1CCCC2(CCc3ccccc32)C1` (stereo partly drawn), a half-maximal effect (EC50) was put at 0.63 µM.

`CC(C)(N)C(=O)N[C@H](Cc1c[nH]c2ccccc12)C(=O)N1CCC2(CC1)Cc1ccccc1C2` came in with an EC50 of 0.037 µM.

Turning to `CC(C)(N)C(=O)N[C@H](Cc1c[nH]c2ccccc12)C(=O)N1CCC2(CC1)CC(=O)c1ccccc1O2`, a half-maximal effect (EC50) was put at 0.037 µM.

Regarding `CC(C)(N)C(=O)N[C@H](Cc1c[nH]c2ccccc12)C(=O)N1CCC2(CCc3ccccc3O2)CC1`, the concentration giving a half-maximal response (EC50) came out at 0.025 µM.

Molecule `CC(C)(N)C(=O)N[C@H](Cc1c[nH]c2ccccc12)C(=O)N1CCCC2(CC(O)c3ccccc3O2)C1` (stereo partly drawn) gave a concentration for a half-maximal effect (EC50) of 0.0012 µM.

`CC(C)(N)C(=O)N[C@H](Cc1c[nH]c2ccccc12)C(=O)N1CCCC2(CC(=O)c3ccccc3O2)C1` (stereo partly drawn): the concentration giving a half-maximal response (EC50) is 0.0018 µM.

Take `CC(C)(N)C(=O)N[C@H](Cc1c[nH]c2ccccc12)C(=O)N1CCCC2(Cc3ccccc3C2)C1`: the half-maximal effective concentration (EC50) was 0.06 µM.

`CC(C)(N)C(=O)N[C@H](Cc1c[nH]c2ccccc12)C(=O)N1CCC[C@@]2(CC(=O)c3ccccc3O2)C1`: a half-maximal response (EC50) required 0.0012 µM.
